# Test results: patent publication US20080138462A1, “Lactobacillus buchneri strain LN5665 and its use to improve aerobic stability of silage” (Pioneer Hi-Bred International, Inc., priority 2006, published 2008)
# Assay: Aerobic stability of grass silage (PVC silos, method of Honig)
# Parameters: species or system ryegrass
# Protocol: Second cut ryegrass was harvested at PLNC. The grass was determined to have an approximate dry matter of 35%.
# Inoculation: Individual strains were supplied as fresh grown overnight culture. Cultures were adjusted to a standard concentration of 5.0×10^7 CFU/mL and applied using a syringe at a rate of 2.2 mL/kg of forage. The application rate for all strains was 1.1×10^5 CFU/g forage. Propionic acid (88%) was applied at a rate of 4.4 mL/kg fresh forage.
# PVC Silos: PVC silos were filled at a packing density of 0.288 kg DM/silo (100 kg DM/m^3); approximately 0.82-0.95 kg/silo. Silos were air infused for 24 hours on days 28 and 42, and opened after 50-60 days of ensiling.
# Aerobic Stability: The method of Honig (Proc. Of the Eurobac. Conf., P. Lingvall and S. Lindgren (ed.) (12-16 Aug. 1986) Swed. Univ. of Agric. Sci. Grass and Forage Report No. 3-1990. Pp. 76-81. Uppsala, Sweden.) was used for measuring aerobic stability (see Table 1). ROT is defined as the time, in hours, for the silage to heat 1.7° C. after exposure to air. Cumm_DD is the integral value of the area between the time ROT is attained and the end of the experiment. Aerobic dry matter loss (% dry matter) was determined relating the increase in temperature and the time to energy losses occurring in the silage.
compound,measurement,value
"CCC(=O)O [Propionic Acid, Propionic acid]",Aerobic deterioration compared with control grass silages,significantly less aerobic deterioration
